Laboratory results reported in patent US5756491A, “Antiviral cobalt-organic compounds” (priority 1991, dated 1998).

Legend:
VZV = experiment: In vitro assay with VZV on HFF monolayers; format: cell-based; details: for virucidal efficacy (VZV titer): Table 20, 7 days PI; for effective virucidal concentration IC50: Table 21, VZV
Procedure: VZV was grown to a CPE level in vitro assays with VZV of 3-4+ on HFF cell monolayers. The VZV was scraped from the flask, centrifuged and the cell pellet was resuspended in 10 ml of complete medium. One hundred to 200 μl of the VZV cell associated inoculum was inoculated onto confluent HFF cell monolayers by absorption for 60 minutes at 37° C. After absorption of the virus, the inoculum was aspirated from the cell monolayers.
The VZV-infected monolayers were rehydrated with medium containing the appropriate concentrations of compounds to be tested. All monolayers were incubated at 37° C. Development of VZV cytopathology was monitored daily for 7 days by inverted light microscopy. Titers were calculated by multiple regression analysis.
Sham-inoculated, non-treated HFF cell monolayers were included among with the drug-treated monolayers as cell monolayer controls.
VZV inoculated, non-treated HFF monolayers were included as positive controls.

HFF cells [1] = experiment: Neutral red uptake toxicity; format: cell-based, human; details: stationary cells
HFF cells [2] = experiment: MTT assay for cell cytotoxicity; format: cell-based, human; details: stationary cells
Procedure: Twenty-four hours prior to assay, HFF cells are plated into 96 well plates at a concentration of […] cells per well. After 24 h, the media is aspirated and […] of drug is added to the first row of wells and then diluted serially 1:5 using the automated Cetus Liquid Handling System in a manner similar to that used in the CPE assay. The plates are then incubated in a CO2 incubator at 37° C. for seven days. At this time, each well receives 50 microliters of […] solution of MTT in Dulbecco's Phosphate Buffered Saline. The plates are then incubated for an additional four hours. At this time, the media is removed and replaced with 100 μl of 0.04N hydrochloric acid in isopropanol. After shaking briefly, the plates are then read on a plate reader at 550 nm.

HSV-1 McKrae Strain = experiment: Intracellular antiviral activity against HSV-1 in HFF monolayers; format: cell-based; details: for antiviral efficacy (HSV-1 titer): Experiment 7 (Table 18), 24 h PI; for effective virucidal concentration IC50: Experiment 7 (Table 19), HSV-1
Procedure: HSV-1 McKrae Strain was diluted to a final concentration of 10^5 PFU/ml in minimal essential medium (MEM). Hereinafter, this dilution is referred to as the HSV-1 Suspension for convenience.
With sufficient stirring, all the compounds completely dissolved.
HFF cell monolayers were inoculated with the HSV-Suspension prepared as above by absorption for thirty minutes at 37° C. After absorption of the virus, the inoculum was aspirated from the cell monolayers and the HSV-1 infected monolayers were rehydrated with medium containing the appropriate concentration of the solution of the compound by adding 500 microliters of each compound concentration to triplicate HSV-1 infected monolayers. All monolayers were incubated at 37° C. The developing HSV-1 cytopathology was monitored daily for two days by inverted light microscopy and titers were calculated by multiple […] analysis. For the intracellular anti-viral activity, "cell monolayer controls" were obtained using sham inoculated non-treated HFF cell monolayers along with the drug treated monolayers. "Positive controls" were obtained by using HSV-1 inoculated non-CTC compound treated HFF monolayers.

RE strain HSV-1 = experiment: Topical efficacy in RE strain HSV-1-induced stromal keratitis in the rabbit; format: in vivo, NZW rabbit; details: for efficacy ranking during stromal HSV-1 infection: Example 3, all eyes, FIG. 1, 1 mg/ml (TFT 0.1%), 9x/day, 5 days; for efficacy ranking, average stromal disease scores: Example 4, FIG. 2
Procedure: The following examples describe topical ocular evaluation of the inventive compounds during RE strain HSV-1-induced stromal keratitis in the rabbit. These evaluations included analysis of the topical efficacy of both the inventive compounds alone, or, in certain instances, in combination with trifluorothymidine (TFT). The evaluation was carried out by the combined analysis of both clinical and virological (HSV-1 recovery) parameters. The specified number of NZW rabbits (1.5-2.0 kg) were used. Animals were received at least two days prior to inoculation to allow them to accommodate to the conditions in the vivarium facility. This conditioning of the animals prior to inoculation minimizes animal variability. After the accommodation, the animals received a slit-lamp examination to exclude any animals with pre-existing anterior segment ocular defects. Animals were bi-laterally inoculated by intrastromal injection of 10^5 PFU RE strain HSV-1. The animals were then replaced individually into cages. On day number three post-inoculation (PI), the animals were evaluated by slit-lamp microscopy. Corneal stromal, iris and conjunctival disease were graded on an increasing scale of severity from 0+ to 4+. After evaluation, the animals were divided into a specified number of groups each containing an equal number of animals based on a matched corneal stromal involvement. Topical therapy was initiated immediately after animal groupings. All animals received daily slit-lamp evaluations from day 3 through 7 PI. The ocular HSV-1 induced disease severity was recorded daily. […] Differences in disease resolution and development of stromal alterations are statistically analyzed. Virus recovery during and after topical therapy was compared. The topical efficacy of Compounds 23 and 96 on stromal HSV-1 infection in the rabbit model of stromal keratitis was evaluated. All animals received daily slit lamp evaluations from day 3 through day 7 and on days 9 and 10 PI. The ocular HSV-1-induced disease severity was recorded daily. The topical efficacy of Compounds 23, 96 and 82 on stromal HSV-1 infection in the rabbit model of stromal keratitis was evaluated. All animals received daily slit lamp evaluations for day 3 through day 7 PI. The ocular HSV-1-induced disease severity was recorded daily. The topical efficacy of Compounds 23 and 96 in combination with TFT on stromal HSV-1 infection in the rabbit model of stromal keratitis was evaluated. Groups 1, 2 and 3 each have 5 animals for a total of 10 eyes per combination therapy. This allowed minimization of individual animal variability and performance of a statistical analysis on the results of the combination therapies. Groups 3, 4 and 5 have 2 animals each. These single-agent therapies were used to verify previously reported data on the efficacy of these compounds. The compounds are used at a lower frequency of delivery to match the dosing regimen of the combination-agent group. Consequently, the study also provides comparative information on Compounds 23 and 96 as a lower frequency of topical administration (4 times per day vs. 9 times per day in previous studies).

[3] = 0.1 mg/ml, toxicity observation questionable

## CC1=CC(C)=[N+]2CC[N+]3=C(C)C=C(C)[O][Co-3]23([NH3+])([NH3+])[O]1.[Cl-] [Compound 23, reference compound]
VZV; [3]
  virucidal efficacy (VZV titer): T?
VZV; 0.5 mg/ml
  virucidal efficacy (VZV titer): 0 PFU/ml
VZV; 1 mg/ml
  virucidal efficacy (VZV titer): 0 PFU/ml
VZV; 2 mg/ml
  virucidal efficacy (VZV titer): 0 PFU/ml
VZV; 5 mg/ml
  virucidal efficacy (VZV titer): 0 PFU/ml
HFF cells [1]
  toxicity IC50, neutral red uptake: 11.5 MCG/ML
HFF cells [2]
  toxicity IC50, MTT toxicity: > 61 MCG/ML
HSV-1 McKrae Strain; 0.01 mg/ml
  antiviral efficacy (HSV-1 titer): 10^2 PFU/ml
HSV-1 McKrae Strain; 0.5 mg/ml
  antiviral efficacy (HSV-1 titer): 0-10^1 PFU/ml
HSV-1 McKrae Strain; 1 mg/ml
  antiviral efficacy (HSV-1 titer): 0 PFU/ml
HSV-1 McKrae Strain; 2 mg/ml
  antiviral efficacy (HSV-1 titer): 0 PFU/ml
HSV-1 McKrae Strain; 5 mg/ml
  antiviral efficacy (HSV-1 titer): 0 PFU/ml
RE strain HSV-1
  efficacy ranking during stromal HSV-1 infection: Compound 96>>Compound 23>TFT>Placebo
  efficacy ranking, average stromal disease scores: Compound 96>Compound 82>Compound 23>TFT=Placebo
RE strain HSV-1; Example 3, days 7, 9 and 10 PI
  efficacy vs TFT therapy: superior to TFT therapy
RE strain HSV-1; Example 5, FIG. 5, initial stromal disease <0.5 on day 3 PI
  effect on stromal disease severity/progression: slowed the progression of stromal disease

## CC([O-])=CC(C)=NCCN=C(C)C=C(C)[O-].[Cl-].[Co+3].c1c[nH]cn1.c1c[nH]cn1 [Compound 82]
RE strain HSV-1; Example 4
  efficacy relative to Compounds 23 and 96: intermediate between Compounds 23 and 96
RE strain HSV-1; Example 4, 1 mg/ml, severity <0.5+ on day 3 PI
  reduction of stromal disease development: effective in reducing the development of stromal disease
RE strain HSV-1
  efficacy ranking, average stromal disease scores: Compound 96>Compound 82>Compound 23>TFT=Placebo
RE strain HSV-1; Example 4, severity >0.75
  effect on development or progression of stromal disease: did not alter the development or progression of stromal disease

## CC(=NCCN=C(C)C(Cl)=C(C)[O-])C(Cl)=C(C)[O-].[Br-].[Co+3].c1c[nH]cn1.c1c[nH]cn1 [Compound 93]
VZV; 0.001 mg/ml
  virucidal efficacy (VZV titer): 10^4 PFU/ml
VZV; 0.01 mg/ml
  virucidal efficacy (VZV titer): 10^2 PFU/ml
VZV; [3]
  virucidal efficacy (VZV titer): T?
VZV
  effective virucidal concentration IC50: 10 µg/mL
HFF cells [1]
  toxicity IC50, neutral red uptake: 27.3 MCG/ML
HFF cells [2]
  toxicity IC50, MTT toxicity: 65.0 MCG/ML
HSV-1 McKrae Strain; 0.001 mg/ml
  antiviral efficacy (HSV-1 titer): 10^5 PFU/ml
HSV-1 McKrae Strain; 0.5 mg/ml
  antiviral efficacy (HSV-1 titer): 10^2 PFU/ml
HSV-1 McKrae Strain; 1 mg/ml
  antiviral efficacy (HSV-1 titer): 0 PFU/ml
HSV-1 McKrae Strain
  effective virucidal concentration IC50: 500 µg/mL

## CC([O-])=CC(C)=NCCN=C(C)C=C(C)[O-].Cc1ncc[nH]1.Cc1ncc[nH]1.[Br-].[Co+3] [Compound 96]
VZV; 0.001 mg/ml
  virucidal efficacy (VZV titer): 10^4 PFU/ml
VZV; 0.01 mg/ml
  virucidal efficacy (VZV titer): 10^2 PFU/ml
VZV; [3]
  virucidal efficacy (VZV titer): T?
VZV; 2 mg/ml
  virucidal efficacy (VZV titer): 0 PFU/ml
VZV; 5 mg/ml
  virucidal efficacy (VZV titer): 0 PFU/ml
VZV
  effective virucidal concentration IC50: 10 µg/mL
HFF cells [1]
  toxicity IC50, neutral red uptake: 22.0 MCG/ML
HFF cells [2]
  toxicity IC50, MTT toxicity: > 74 MCG/ML
HSV-1 McKrae Strain; 0.1 mg/ml
  antiviral efficacy (HSV-1 titer): 10^2 PFU/ml
HSV-1 McKrae Strain; 2 mg/ml
  antiviral efficacy (HSV-1 titer): 0 PFU/ml
HSV-1 McKrae Strain; 5 mg/ml
  antiviral efficacy (HSV-1 titer): 0 PFU/ml
HSV-1 McKrae Strain
  effective virucidal concentration IC50: 500 to 1000 µg/mL
RE strain HSV-1; Example 3
  comparison with all other therapies in reducing/preventing corneal stromal keratitis: superior to all other therapies in reducing and/or preventing the development of corneal stromal keratitis
  scarring vs TFT animals: significantly lower than the scarring in the TFT animals
RE strain HSV-1
  efficacy ranking during stromal HSV-1 infection: Compound 96>>Compound 23>TFT>Placebo
  efficacy ranking, average stromal disease scores: Compound 96>Compound 82>Compound 23>TFT=Placebo
RE strain HSV-1; Example 3, all of the therapies used
  comparison with compound 23: superior properties in all of the therapies used in the studies as compared to compound 23
RE strain HSV-1; Example 3, days 4, 5 and 6 PI
  efficacy vs other topical therapies: significantly better results than the other topical therapies
RE strain HSV-1; Example 3, eyes with stromal disease <0.75 on day 3 PI
  efficacy vs TFT, Placebo and Compound 23: statistically better than TFT, Placebo and Compound 23
RE strain HSV-1; Example 5, FIG. 7, <0.5 on day 3 PI
  difference between Compound 96 single-agent and Compound 96 plus TFT: No difference
RE strain HSV-1; Example 5, FIG. 7, score <0.5 on day 3 PI, 4 times per day
  effect on development and progression of stromal disease: highly effective and slowed the progression and development stromal disease
